Results: patent US9826740B2, “Synergistic fungicidal compositions and methods of use” (ZELAM LIMITED, priority 2010, dated 2017)
“And” between values parts separate entries of the source, which are not always exact repeats. Identical values can stand only once. Like-named read-outs stand apart in the source and are kept apart here.

Legend:
[1] = 20° C.; cited from earlier work
[2] = cited from earlier work
[3] = cited from earlier work; remark: listed apart in the source
Tyromyces palustris = test: Rot jar test of glueline treated Pinus radiata plywood (AWPC 2007)
Method: (§1) Efficacy as a glueline fungicide was tested in plywood manufactured with phenol formaldehyde (PF), a typical resin used in engineered wood products. The wood type was Pinus radiata sapwood, which, like many softwoods, is rapidly degraded by decay organisms, if not protected. Five 3.2 mm rotary-peeled veneers were laid up with fungicide-containing PF resin at a typical commercial glue spread rate (250 g/m^2), cold pressed for 10 minutes then hot pressed for 12 minutes at 135° C. and […]. Test specimens (25 mm×25 mm×16 mm) were cut, then leached for 14 days according to EN 84 before conducting a three month “rot jar test” as specified by the Australasian Wood Preservation Committee (Laboratory Decay Test for Hazard Classes H3, H4 and H5, AWPC, 2007). Untreated controls contained no fungicide.
Plywood was manufactured following the procedure in Example 7 using triadimefon and triadimenol as the glueline fungicides and tested by the rot jar method after leaching. […]

[4] = tested on: Antrodia xantha (Brown rot); test: Malt extract agar plate growth inhibition; type: cell-based
Method: (§2) The end points used were EC90 or EC50, the concentration producing 90% or 50% inhibition of growth or weight loss resulting from fungal growth. EC values were calculated by regression analysis of dose response data using the GraphPad Prism software package (GraphPad Software, Inc., 5755 Oberlin Drive #110, San Diego, Calif. 92121, USA). EC90 values are expressed in ppm and EC50 values are expressed in gai/m^3. […]

[5] = tested on: Coniophora puteana (Brown rot); test: Malt extract agar plate growth inhibition; type: cell-based; conditions: Example 6, 8 days growth
Method: as §2

[6] = tested on: Fomitopsis lilacino-gilva (Brown rot); test: Malt extract agar plate growth inhibition; type: cell-based; conditions: Example 4, 5 days at 25° C.
Method: (§3) The end points used were EC90 or EC50, the concentration producing 90% or 50% inhibition of growth or weight loss resulting from fungal growth. EC values were calculated by regression analysis of dose response data using the GraphPad Prism software package (GraphPad Software, Inc., 5755 Oberlin Drive #110, San Diego, Calif. 92121, USA). EC90 values are expressed in ppm and EC50 values are expressed in gai/m^3.
(§4) Decay fungi were grown on malt extract agar plates for 5 days at 25° C. in the presence of triadimefon alone or triadimenol alone (A), cyproconazole alone (B), and the pairs of mixtures shown in Table 2.

[7] = tested on: Trametes versicolor (White rot); test: Malt extract agar plate growth inhibition; type: cell-based; conditions: Example 4, 5 days at 25° C.
Method: as §3, §4

Coniophora puteana = test: Rot jar test of glueline treated Pinus radiata plywood (AWPC 2007); conditions: Example 10, glueline rate giving 50% inhibition of weight loss, regression
Method: as §3
Efficacy as a glueline fungicide was tested in plywood manufactured with phenol formaldehyde (PF), a typical resin used in engineered wood products. The wood type was Pinus radiata sapwood, which, like many softwoods, is rapidly degraded by decay organisms, if not protected. […]
(§5) In order to examine the interaction between triadimefon and cyproconazole in the glueline a synergy trial was performed using plywood manufactured with fungicide-supplemented PF resin and the rot jar method described above. Six glueline rates (expressed as gai/m^3) of triadimefon alone, cyproconazole alone, triadimefon+cyproconazole (10:1) and triadimefon+cyproconazole (6:1) were used to establish EC50 values by regression analysis. Synergy was determined by the Wadley method as described above using the EC50 values. […]

Antrodia xantha = test: as above; conditions: for EC50(obs): Example 9, glueline rate giving 50% inhibition of weight loss, six rates, regression; for Percentage weight loss: rot jar after leaching
Method: as §3, §1
(§6) Plywood was manufactured following the procedure in Example 7 using triadimefon and triadimenol as the glueline fungicides and tested by the rot jar method after leaching.
(§7) In order to examine the interaction between triadimefon and cyproconazole in the glueline a synergy trial was performed using plywood manufactured with fungicide-supplemented PF resin and the rot jar method described above. Six glueline rates (expressed as gai/m^3) of triadimefon alone, cyproconazole alone, triadimefon+cyproconazole (10:1) and triadimefon+cyproconazole (6:1) were used to establish EC50 values by regression analysis. Synergy was determined by the Wadley method as described above using the EC50 values.
(§8) Plywood 29 mm thick was manufactured from seven 4.3 mm rotary peeled Pinus radiata sapwood veneers using PF resin supplemented with various rates of triadimefon plus cyproconazole at a 10:1 ratio. […] The finished plywood was then sprayed with the same mixtures to cover the top and bottom faces of the plywood. Test specimens (25 mm×25 mm×29 mm) were cut, leached and tested by the rot jar method as described in Example 7.

[8] = tested on: Fomitopsis lilacino-gilva; test: as above; conditions: for EC50(obs): Example 9, glueline rate giving 50% inhibition of weight loss, six rates, regression
Method: as §3, §1, §6, §7, §8

[9] = tested on: Gloeophyllum abietinum (Brown rot); test: Malt extract agar plate growth inhibition; type: cell-based; conditions: Example 5, 7 days growth
Method: as §2
(§9) Further EC90 values were determined for this example in a standard manner.

[10] = tested on: Poria placenta (Brown rot); test: Malt extract agar plate growth inhibition; type: cell-based
Method: as §2, §9

[11] = tested on: Tyromyces palustris (Brown rot); test: Malt extract agar plate growth inhibition; type: cell-based; conditions: Example 5, 4 days growth
Method: as §2, §9

[12] = tested on: Pycnoporus coccineus (White rot); test: Malt extract agar plate growth inhibition; type: cell-based
Method: as §2, §9

[13] = tested on: Serpula lacrymans (Dry rot); test: Malt extract agar plate growth inhibition; type: cell-based
Method: as §2, §9

Serpula lacrymans = test: Rot jar test of glueline treated Pinus radiata plywood (AWPC 2007); conditions: for Percentage weight loss: leached, three month rot jar; for EC50(obs): Example 9, glueline rate giving 50% inhibition of weight loss, six rates, regression
Method: as §3, §1, §5

[14] = cited from earlier work; remark: listed apart in the source
Trichoderma viride = conditions: cited from earlier work
Coriolus versicolor = conditions: cited from earlier work
[15] = tested on: human and yeast CYP51 (lanosterol-14α-demethylase); conditions: cited from earlier work; for relative selectivity for the fungal enzyme (in words): based on the IC50 ratio human/yeast; for ratio of IC50 values (human/yeast) against CYP51: human CYP51 IC50 / yeast (Candida albicans) CYP51 IC50
Decay fungi = test: Malt extract agar plate growth test, statements over all decay fungi tested; type: cell-based; conditions: Example 4, EC90, Antrodia xantha, Fomitopsis lilacino-gilva, Trametes versicolor
Method: as §3, §4, §9

Chondrostereum purpureum = conditions: cited from earlier work
[16] = cited from earlier work; remark: listed apart in the source
[17] = Example 7, glueline 62.5 gai/m3, PF plywood, leached, three month rot jar
[18] = Example 7, glueline 125 gai/m3, PF plywood, leached, three month rot jar
[19] = Example 7, glueline 250 gai/m3, PF plywood, leached, three month rot jar
[20] = Example 7, glueline 500 gai/m3, PF plywood, leached, three month rot jar
[21] = Example 7, glueline 62.5 gai/m3, PF plywood
[22] = Example 7, glueline 125 gai/m3, PF plywood
[23] = Example 7, glueline 250 gai/m3, PF plywood
[24] = Example 7, glueline 500 gai/m3, PF plywood
[25] = Example 8, glueline 250 gai/m3, PF plywood, rot jar after leaching
[26] = Example 8, glueline 500 gai/m3, PF plywood, rot jar after leaching
[27] = Example 8, glueline 1000 gai/m3, PF plywood, rot jar after leaching
[28] = Example 8, glueline 2000 gai/m3, PF plywood, rot jar after leaching
[29] = Example 8, glueline 250 gai/m3, PF plywood
[30] = Example 8, glueline 500 gai/m3, PF plywood
[31] = Example 8, glueline 1000 gai/m3, PF plywood
[32] = Example 8, glueline 2000 gai/m3, PF plywood
[33] = in words, temperature not given

CC(C)(C)C(O)(CCc1ccc(Cl)cc1)Cn1cncn1 (racemic) [Tebuconazole]
Sol. Water [1]: 36 mg/L (20° C.)
Stability, hydrolysis DT50 ([2]; pH 4-9): DT50 >1 y pH 4-9
Sol. DCM ([3]; 20° C.): >200 g/L (20° C.)
Sol. hexane ([3]; 20° C.): <0.1 g/L (20° C.)
Sol. toluene ([3]; 20° C.): 50-100 g/L (20° C.)

CC(C1CC1)C(O)(Cn1cncn1)c1ccc(Cl)cc1 (racemic) [Cyproconazole]
Stability in water ([2]; pH 1): Stable in water 35 d
Percentage weight loss (Tyromyces palustris; [17]): 25.0%
Percentage weight loss (Tyromyces palustris; [18]): 16.0%
Percentage weight loss (Tyromyces palustris; [19]): 17.1%
Percentage weight loss (Tyromyces palustris; [20]): 4.3%
EC90(obs) ([4]; Example 4, 5 days at 25° C.): 0.19 ppm
EC90(obs) ([4]; Example 6, 8 days growth): 0.46 ppm
EC90(obs) [5]: 1.93 ppm
EC90(obs) [6]: 0.12 ppm
EC90(obs) [7]: 0.30 ppm and 0.19 ppm
EC50(obs) (Coniophora puteana): 345 gai/m^3
EC50(obs) (Antrodia xantha): 84 gai/m^3
Percentage weight loss [8, 17]: 7.6%
Percentage weight loss [8, 18]: 4.1%
Percentage weight loss [8, 19]: 2.7%
Percentage weight loss [8, 20]: 0.8%
EC50(obs) [8]: 10 gai/m^3
EC90(obs) [9]: 0.25 ppm
EC90(obs) ([10]; Example 5, 5 days growth): 0.92 ppm
EC90(obs) ([10]; Example 6, 6 days growth): 0.36 ppm
EC90(obs) [11]: 0.68 ppm
EC90(obs) ([12]; Example 5, 4 days growth): 0.17 ppm
EC90(obs) ([12]; Example 6, 6 days growth): 0.14 ppm
EC90(obs) ([13]; Example 5, 5 days growth): 1.60 ppm
EC90(obs) ([13]; Example 6, 8 days growth): 1.32 ppm
Percentage weight loss (Serpula lacrymans; [21]): 38.0%
Percentage weight loss (Serpula lacrymans; [22]): 38.0%
Percentage weight loss (Serpula lacrymans; [23]): 37.9%
Percentage weight loss (Serpula lacrymans; [24]): 29.6%
EC50(obs) (Serpula lacrymans): 465 gai/m^3

CC(C)(C)C(O)C(Oc1ccc(Cl)cc1)n1cncn1 (stereo not shown) [Triadimenol]
Henry ([14]; triadimenol form A): 3 × 10^−6 P m^3 mo1^−1
Henry ([14]; triadimenol form B): 4 × 10^−6 P m^3 mo1^−1
sensitivity of the fungus (in words) (Trichoderma viride): insensitive
Stability, hydrolysis DT50 ([2]; pH 4): DT50 >1 y pH 4,7,9
sensitivity of the fungus (in words) (Coriolus versicolor): sensitive
relative selectivity for the fungal enzyme (in words) [15]: moderately selective
ratio of IC50 values (human/yeast) against CYP51 [15]: 113
efficacy acting alone relative to triadimefon acting alone (Decay fungi): two to ten times more efficacious
Percentage weight loss (Tyromyces palustris; [25]): 9.6%
Percentage weight loss (Tyromyces palustris; [26]): 6.5%
Percentage weight loss (Tyromyces palustris; [27]): 0.9%
Percentage weight loss (Tyromyces palustris; [28]): 0.3%
EC90(obs) ([4]; Example 4, 5 days at 25° C.): 1.12 ppm
EC90(obs) [6]: 0.37 ppm
EC90(obs) [7]: 0.15 ppm
Percentage weight loss (Antrodia xantha; [29]): 24.7%
Percentage weight loss (Antrodia xantha; [30]): 18.4%
Percentage weight loss (Antrodia xantha; [31]): 11.2%
Percentage weight loss (Antrodia xantha; [32]): 1.0%
Percentage weight loss [8, 25]: 9.0%
Percentage weight loss [8, 26]: 5.1%
Percentage weight loss [8, 27]: 1.6%
Percentage weight loss [8, 28]: 0.9%
EC90(obs) [9]: 1.80 ppm
EC90(obs) ([10]; Example 5, 5 days growth): 0.84 ppm
EC90(obs) [11]: 1.26 ppm
EC90(obs) ([12]; Example 5, 4 days growth): 0.10 ppm
EC90(obs) ([13]; Example 5, 5 days growth): 42.8 ppm
sensitivity of the fungus (in words) (Chondrostereum purpureum): sensitive

CC(C)(C)C(=O)C(Oc1ccc(Cl)cc1)n1cncn1 (racemic) [Triadimefon]
Sol. Water [1]: 64 mg/L (20° C.)
Stability, hydrolysis DT50 ([2]; pH 4,7,9): DT50 >1 y pH 4,7,9
Sol. DCM ([3]; 20° C.): >200 g/L (20° C.)
Sol. hexane ([3]; 20° C.): 6.3 g/L (20° C.)
Sol. toluene ([3]; 20° C.): >200 g/L (20° C.)
Kow (log P) [16]: 3.11
Percentage weight loss (Tyromyces palustris; [17]): 28.7%
Percentage weight loss (Tyromyces palustris; [18]): 29.2%
Percentage weight loss (Tyromyces palustris; [19]): 16.5%
Percentage weight loss (Tyromyces palustris; [20]): 7.6%
Percentage weight loss (Tyromyces palustris; [25]): 14.2%
Percentage weight loss (Tyromyces palustris; [26]): 10.7%
Percentage weight loss (Tyromyces palustris; [27]): 2.0%
Percentage weight loss (Tyromyces palustris; [28]): 0.4%
EC90(obs) ([4]; Example 4, 5 days at 25° C.): 2.56 ppm
EC90(obs) ([4]; Example 6, 8 days growth): 2.52 ppm
EC90(obs) [5]: 27.4 ppm
EC90(obs) [6]: 1.48 ppm
EC90(obs) [7]: 1.52 ppm
EC50(obs) (Coniophora puteana): 2591144 gai/m^3
Percentage weight loss (Antrodia xantha; [29]): 29.4%
Percentage weight loss (Antrodia xantha; [30]): 20.3%
Percentage weight loss (Antrodia xantha; [31]): 12.5%
Percentage weight loss (Antrodia xantha; [32]): 6.1%
EC50(obs) (Antrodia xantha): 248 gai/m^3
Percentage weight loss [8, 17]: 17.8%
Percentage weight loss [8, 18]: 16.7%
Percentage weight loss [8, 19]: 10.3%
Percentage weight loss [8, 20]: 8.2%
Percentage weight loss [8, 25]: 19.1%
Percentage weight loss [8, 26]: 13.8%
Percentage weight loss [8, 27]: 5.1%
Percentage weight loss [8, 28]: 3.6%
EC50(obs) [8]: 121 gai/m^3
EC90(obs) [9]: 17.2 ppm
EC90(obs) ([10]; Example 5, 5 days growth): 0.82 ppm
EC90(obs) ([10]; Example 6, 6 days growth): 1.08 ppm
EC90(obs) [11]: 4.48 ppm
EC90(obs) ([12]; Example 5, 4 days growth): 0.34 ppm
EC90(obs) ([12]; Example 6, 6 days growth): 0.70 ppm
EC90(obs) ([13]; Example 5, 5 days growth): 26.4 ppm
EC90(obs) ([13]; Example 6, 8 days growth): 26.3 ppm
Percentage weight loss (Serpula lacrymans; [21]): 42.4%
Percentage weight loss (Serpula lacrymans; [22]): 43.8%
Percentage weight loss (Serpula lacrymans; [23]): 42.2%
Percentage weight loss (Serpula lacrymans; [24]): 44.9%
EC50(obs) (Serpula lacrymans): 14328 gai/m^3

Propiconazole
Sol. Water [1]: 100 mg/L (20°)
Sol. hexane ([3]; 25° C.): 47 g/L (25° C.)
Sol. DCM [3, 33]: Completely misc
Sol. toluene [3, 33]: Completely misc
relative selectivity for the fungal enzyme (in words) [15]: moderately selective
ratio of IC50 values (human/yeast) against CYP51 [15]: 55
Kow (log P) [16]: 3.72
